Test results taken from patent US9416103B2, “Use of the aminoalkylindole JWH-073-M4 and related compounds as neutral CB1 receptor antagonists for the treatment of alcoholism, drug abuse, obesity, and obesity-related diseases” (The Board of Trustees of the University of Arkansas, priority 2012, dated 2016).
Like-named read-outs stand apart in the source and are kept apart here. Marks after values point to notes of the source that are not given here.

Experiments:
CB1Rs [1] = target: T1, CB1Rs (Mus musculus (Mouse), UniProt P47746); details: mouse brain homogenates; values previously reported [39]; read-out: [3H]CP binding Ki; cited from earlier work
CB1Rs [2] = target: T1, CB1Rs; assay: [35S]GTPγS binding assay (G-protein activation) in mouse brain homogenates; type: biochemical
Experimental: (§1) Mouse brain homogenates for in vitro assays were prepared as previously described. Briefly, whole brains were harvested from B6SJL mice, snap-frozen in liquid nitrogen and stored at −80° C. On the day membrane homogenates were to be prepared, brains were thawed on ice, then pooled in a 40 mL Dounce glass homogenizer and suspended in 5 volumes of ice cold homogenization buffer (50 mM HEPES, pH 7.4, 3 mM MgCl2, and 1 mM EGTA). Brains were then subjected to 10 complete strokes with an A pestle, followed by centrifugation at 40,000×g for 10 minutes at +4° C. Resulting supernatants were discarded, and the pellet was resuspended, homogenized and centrifuged similarly twice more, with supernatants being discarded. For the final resuspension and homogenization with a B pestle, ice-cold 50 mM HEPES was used in place of homogenization buffer, and homogenates were aliquoted and stored at −80° C. Protein concentrations of homogenates were determined using the BCA™ Protein Assay (Thermo Scientific, Rockford, Ill.).
[^35S]GTPγS binding was performed as previously described. Briefly, 25 μg of mouse brain homogenates were incubated for 30 minutes at 30° C. with 0.1 nM [^35S]GTPγS, 10 μM GDP, and either cannabinoid+/−antagonist, 10 μM unlabeled GTPγS (non-specific binding) or vehicle (total binding), in triplicate, in a volume of 1 mL of buffer containing 20 mM HEPES, 10 mM MgCl2, 100 mM NaCl, 20 units/L adenosine deaminase, 0.05% BSA and the appropriate DMSO (0.1%) and/or ethanol (<0.2%) vehicle. Assay buffer containing 100 mM KCl, instead of 100 mM NaCl, was used to increase basal G-protein activity in experiments examining inverse agonism. Reactions were terminated by quick vacuum filtration through Whatman GF/B glass fiber filters, followed by five washes with ice-cold buffer (20 mM HEPES, 0.05% BSA). Filters were immediately placed into 7 mL scintillation vials to which 4 mL of ScintiVerse™ BD Cocktail scintillation fluid was added. Bound radioactivity was determined after overnight incubation at room temperature and shaking by liquid scintillation spectrophotometry with an efficiency of 93% (Tri Carb 2100 TR Liquid Scintillation Analyzer, Packard Instrument Company, Meriden, Conn.). Specific binding is expressed as picomoles of [^35S]GTPγS bound per mg of protein.
(§2) Curve fitting and statistical analyses for in vitro experiments were performed using GraphPad Prism™ version 5.0b (GraphPad Software Inc., San Diego, Calif.). The Cheng-Prusoff equation [45] was used to convert the experimental IC50 values obtained from competition receptor binding experiments to Ki values, a quantitative measure of receptor affinity. Non-linear regression for one-site competition was used to determine the IC50 for competition receptor binding. Curve fitting of concentration-effect curves via non-linear regression was also employed to determine the EC50 (a measure of potency) and Emax (a measure of efficacy) for [^35S]GTPγS concentration-effects experiments. […] Data are expressed as mean±SEM. The Student's t-test was used to determine statistical significance (P<0.05) between two groups, while a one-way ANOVA, followed by Tukey's Multiple Comparison post-hoc test, was used to determine statistical significance (P<0.05) between three or more groups.

[3] = target: CB1Rs endogenously expressed in Neuro2A cells (Mus musculus (Mouse), UniProt P47746); assay: Adenylyl cyclase (AC) inhibition via CB1Rs endogenously expressed in Neuro2A cells; type: cell-based; details: for antagonism of AC-inhibition produced by the CB1R full agonist JWH-073: 1 μM concentration; for inhibition at 10 µM: N2a
mice [4] = assay: Oral EtOH self administration, 2-bottle choice procedure; details: daily treatment 10 mg/kg
Description: These assays are important models for the study of alcoholism because they model several aspects of this condition including voluntary EtOH drinking (SA), conditioned EtOH reward (CPP), abstinence and relapse, which represent extinction and reinstatement of CPP, respectively. Effects of TV-5-249 on voluntary 10% EtOH drinking were studied using a 2-bottle choice procedure described by Keane and coworkers as wells as by Cunningham and coworkers. […] After 5 such observations, which represents a two week washout period, daily treatments with 10 mg/kg TV-5-249 were initiated. […] The last treatment was an everyday injection of vehicle, which is 8% Tween/92% sterile water solution and it represents the solution in which both drugs were dissolved in prior to injections.

mice [5] = assay: Alcohol conditioned place preference (CPP); type: in vivo, mouse; details: 10 mg/kg given 1 hour before EtOH pairings
Experimental: Alcohol conditioned place preference assay was done with compounds TV-6-41 and rimonabant. This assay tests the effects of these compounds on conditioned rewarding effects of EtOH. Training of mice involved 4 daily injections of […] EtOH paired with location to one of two chambers (four pairings) after which an increase in time spent in the EtOH-paired chamber was observed, and this points to the development of conditioned place preference (FIG. 24, ‘Pre” bar vs. “Post” bar). […] With the CPP training underway, mice were exposed to succeeding conditioning trials either with 10 mg/kg TV-6-41 or […] 1 hour before EtOH pairings. […] During these studies it was observed that 4 pairings of […] EtOH elicited a CPP of about 400 sec (FIG. 25, “No inj” bar).

hCB2Rs [6] = target: T2, hCB2Rs (Homo sapiens (Human), UniProt P34972); assay: Inhibition of forskolin-stimulated cAMP production (adenylyl cyclase) in intact CHO-hCB2R cells; type: cell-based; details: for inhibition at 10 µM: CHO cell transfected with hCB2 receptors, read-out: AC-inhibition at CB2Rs; for inhibition of AC-activity at CB2Rs, concentration-effect: CHO-hCB2 cells
Experimental: Adenylyl cyclases are a family of membrane-bound enzymes that catalyze the intracellular production of the second messenger cAMP from ATP. Adenylyl cyclase activity is modulated by activated G-proteins: Gs-proteins stimulate activity, while Gi/o-proteins are inhibitory. Thus, agonists of G-protein coupled receptors (GPCRs) coupled to Gi/o-proteins, such as hCB2Rs, decrease cAMP production due to inhibition of adenylyl cyclase activity. In this assay, intact CHO-hCB2R cells are preincubated with [^3H]-adenine and treated with forskolin (10 or 30 μM) to stimulate adenylyl cyclase activity.
A functional assay screen for the inhibition of adenylate cyclase (AC) activity was chosen as the subsequent assay. […] Reaching full-receptor occupancy, which is predicted to produce maximal efficacy, is desirable at 10 μM concentration of all the compounds was used.

mice [7] = assay: Thermoregulation assay, antagonism of JWH-073-induced hypothermia; type: in vivo, mouse; details: 30 minute pretreatment before JWH-073 10 mg/kg
Description: Our hypothesis is that a dual activity CB1R antagonist/CB2R agonist will reduce the reinforcing effects of EtOH as well as reduce the conditioned rewarding effects of ethanol in mice. The compounds selected will firstly be put through a thermoregulation assay as a screen for potential cannabinoid receptor activity. Thermoregulation will be used as a screen because of the well-established hypothermic effects seen with the use of cannabinoid ligands. This assay was done using glass radiotelemetry probes that were surgically implanted in each mouse, which monitor core temperature in response to drug administration. […] This screen does indeed confirm the in vivo cannabinoid activity of TV-5-249 and TV-6-41 and it also illustrates the evident antagonist effects against agonist induced hypothermia.

CHO-WT cells = assay: AC-inhibition assay in CHO-WT cells not transfected with CB2Rs; type: cell-based, Chinese hamster
Experimental: To examine if the observed agonist activity is due to activation of CB2Rs, an additional AC-inhibition assay was performed.

CB1Rs [8] = target: T1, CB1Rs; assay: Competition receptor binding with [3H]CP-55,940 in mouse brain homogenates; details: Table 3; read-out: mCB1R Ki
Experimental: as §1
(§3) Competition receptor binding was performed as previously described. […] Reactions were terminated by rapid vacuum filtration through Whatman GF/B glass fiber filters, followed by five washes with ice-cold buffer (50 mM Tris, 0.05% BSA). Filters were immediately placed into 7 mL scintillation vials to which 4 mL of ScintiVerse™ BD Cocktail scintillation fluid (Fisher Scientific, Fair Lawn, N.J.) was added. Bound radioactivity was determined after overnight incubation at room temperature and shaking, by liquid scintillation spectrophotometry with an efficiency of 44% (Tri Carb 2100 TR Liquid Scintillation Analyzer, Packard Instrument Company, Meriden, Conn.). Specific binding is expressed as total binding minus non-specific binding, and is graphed for each data point as a percentage of specific binding occurring in the absence of any competitor.
as §2
(§4) The prepared analogues were subjected to in vitro pharmacological testing, which included receptor binding and functional assays at both cannabinoid receptors. Initial receptor binding screens at both CB1Rs and CB2Rs were conducted for the analogues prepared.

hCB2Rs [9] = target: T2, hCB2Rs; assay: Competition receptor binding with [3H]CP-55,940 in CHO-hCB2 cell homogenates; details: Table 3; read-out: hCB2R Ki
Experimental: as §3, §4

Structure (SMILES) | Ki (CB1Rs [1]) [nM] | [35S]GTPγS Binding, 100 nM (CB1Rs [2]; 100 nM) [pmol/mg] | [35S]GTPγS Binding, +O-2050 (1 μM) (CB1Rs [2]; 1 μM cannabinoid (100 nM for CP-55,940) co-incubated with CB1R antagonist O-2050 1 μM) [pmol/mg] | [35S]GTPγS Binding Emax (CB1Rs [2]; concentration-effect, mouse brain homogenates) | EC50 (CB1Rs [2]; concentration-effect, mouse brain homogenates, read-out: [35S]GTPγS Binding EC50) [nM] | AC-inhibition at CB1Rs ([3]; 10 μM, Neuro2A cells) [%] | EtOH preference (10% EtOH, 2-bottle choice) (mice [4]) | body weight (mice [4]) | total fluid consumption (mice [4]) | EtOH conditioned place preference (mice [5]) | inhibition at 10 µM (hCB2Rs [6]) [%] | inhibition of AC-activity at CB2Rs, concentration-effect (hCB2Rs [6]) | effect on JWH-073-induced hypothermia (mice [7]) | AC-activity in CHO-WT cells not transfected with CB2Rs (CHO-WT cells) | Ki (CB1Rs [8]) [nM] | Ki (hCB2Rs [9]) [nM] | antagonism of AC-inhibition produced by the CB1R full agonist JWH-073 [3] | inhibition at 10 µM ([3]; 10 μM, Neuro2A cells) [%] | inhibition of AC-activity via CB1Rs, concentration-effect ([3]; Neuro2A cells)
CCCCCCC(C)(C)c1ccc(C2CC(O)CC[C@H]2CCCO)c(O)c1 (some centres unmarked) [CP-55,940] | 0.26 ± 0.1 | 0.20 ± 0.04 | 0.06 ± 0.03 | 0.26 ± 0.01^a pmole/mg | 7.5 ± 1.8 | 45 | – | – | – | – | – | – | – | – | – | – | – | – | –
Cc1c(C(=O)NN2CCCCC2)nn(-c2ccc(Cl)cc2Cl)c1-c1ccc(Cl)cc1 [rimonabant, 5-(4-Chlorophenyl)-1-(2,4-dichloro-phenyl)-4-methyl-N-(piperidin-1-yl)-1H-pyrazole-3-carboxamide, reference compound] | – | – | – | – | – | – | decreases EtOH preference | does indeed have an effect on body weight | without having any effect on total fluid intake | did not elicit a significant preference for the EtOH-paired chamber | – | – | – | – | – | – | – | – | –
CCCCn1cc(-c2ccc3ccccc3c2)c2cccc(OC)c21 [TV-6-41, 1-butyl-7-methoxy-3-(naphthalen-2-yl)-1H-indole] | – | – | – | – | – | – | – | – | – | conditioned rewarding effects of EtOH were blocked | 20.8 | 40-50% | significantly decreased the hypothermic effects of JWH-073 | neither TV-5-249 nor TV-6-41 significantly modify AC-activity | 37.3 ± 11.8 | 26.5 | antagonize AC inhibition | 16 | very little inhibition of AC-activity
CCCCn1cc(Cc2cccc3ccccc23)c2cccc(OC)c21 [TV-5-249, 1-butyl-7-methoxy-3-(naphthalen-1-ylmethyl)-1H-indole] | – | – | – | – | – | – | reduced EtOH preference | did not decrease body weight | without affecting total fluid consumption | – | 33.2 | 40-50% | significantly decreased the hypothermic effects of JWH-073 | neither TV-5-249 nor TV-6-41 significantly modify AC-activity | 15.4 ± 2.2 | 10.9 | antagonize AC inhibition | 18 | very little inhibition of AC-activity
